Columns and labels:
[1] = system: dry skin itch mouse model; experiment: Dry skin itch mouse model (AEW treatment); format: in vivo, ICR mice; details: oral PA-8 3, 10 or 30 mg/kg; observed 1 hour from 30 minutes after administration; FIG. 3
Protocol: The present test was carried out with reference to the method of Miyamoto et al. that is a test system published as a method for evaluating itch in animals (Miyamoto T., Nojima H., Shinkado T., et al.: Itch-associated response induced by experimental dry skin in mice, Jpn. J. Phamacol., 88, 285-292, 2002).
Five-week-old ICR mice (40 mice) were each placed in a cage, and were then conditioned for 1 week. Thereafter, three days before initiation of the test, the rostral back of each mouse was shaved (treatment method A). The thus shaved 40 mice were divided into 5 groups (8 mice/group), namely, into a 3 mg/kg PA-8 oral (p.o.) administration group, a 10 mg/kg PA-8 oral (p.o.) administration group, a 30 mg/kg PA-8 oral (p.o.) administration group, a comparative group, and a control group.
In the PA-8 administration groups, the mice, which had undergone a shaving treatment (treatment method A), were subjected to ether anesthesia. Thereafter, a cotton (2×2 cm) impregnated with a mixed solution of acetone (A): diethyl ether (E) (1:1) was applied to the rostral back of each mouse for 15 seconds, and then, a cotton impregnated with ion exchange water (W) was applied thereto for 30 seconds [hereinafter, a series of treatments are abbreviated as an AEW treatment (treatment method B)]. The AEW treatment was carried out twice a day, with intervals of 8 hours, for 5 days. […]

[2] = target: T1, mouse PAC1 receptor (Mus musculus, UniProt P70205); experiment: CREB phosphorylation by PACAP stimulus, Western blot, PAC1/CHO cells; format: cell-based
T1 construct: expressed in transfected cells; host or cells: CHO cells
T1 sequence (P70205 21-496): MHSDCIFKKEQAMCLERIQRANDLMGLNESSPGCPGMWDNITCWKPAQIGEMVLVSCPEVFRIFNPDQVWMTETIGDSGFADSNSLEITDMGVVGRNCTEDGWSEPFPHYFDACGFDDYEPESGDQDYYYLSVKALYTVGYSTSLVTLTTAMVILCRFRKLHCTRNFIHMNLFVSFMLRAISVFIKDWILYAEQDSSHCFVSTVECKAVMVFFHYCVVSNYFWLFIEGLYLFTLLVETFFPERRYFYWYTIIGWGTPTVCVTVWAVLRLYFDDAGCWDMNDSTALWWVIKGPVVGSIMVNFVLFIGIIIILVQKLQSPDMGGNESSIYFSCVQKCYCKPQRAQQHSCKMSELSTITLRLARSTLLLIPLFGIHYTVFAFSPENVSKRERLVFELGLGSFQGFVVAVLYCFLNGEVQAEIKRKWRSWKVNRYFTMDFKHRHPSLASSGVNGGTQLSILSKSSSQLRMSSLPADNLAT
Protocol: The effect of each compound on the phosphorylation of CREB (cAMP-responsive element-binding protein) produced by a PACAP stimulus was examined by Western blot analysis using an anti-phosphorylated CREB (pCREB) antibody with a mouse PAC1 receptor-expressing CHO cells (PAC1/CHO cells) and a mouse VPAC1 receptor-expressing CHO cells (VPAC1/CHO cells).
Specifically, treatment with a compound (PA-8, compound 2j and compound 2o) at 10 pM to 10 nM or a solvent therefor, DMSO (VEH: 0.1% DMSO-containing phosphate buffer solution) was performed for 30 minutes, 1 nM PACAP was then added, and protein was recovered within 30 minutes after a PACAP stimulus.
The effect of each compound on the phosphorylation of CREB (cAMP-responsive element-binding protein) produced by a PACAP stimulus was examined by Western blot analysis using an anti-phosphorylated CREB (pCREB) antibody with a mouse PAC1 receptor-expressing CHO cells (PAC1/CHO cells).

[3] = system: psoriasis mouse model; experiment: Psoriasis mouse model (imiquimod); format: in vivo, ICR mice; details: 30 mg/kg p.o. 30 minutes before 1 hour video observation; FIG. 14
Protocol: The present test was carried out with reference to the method of van der Fits et al. that is a test system published as a method for evaluating itch in animals (van der Fits L., Mounts S., Voerman J S A., et al.: Imiquimod-Induced Psoriasis-Like Skin Inflammation in Mice Is Mediated via the IL-23/IL-17 Axis, J. Immunol., 182, 5836-5845, 2009).
Five-week-old ICR mice (20 mice) were each placed in a cage, and were then conditioned for 1 week. Thereafter, three days before initiation of the test, the waist of each mouse was shaved. Then, 62.5 mg of commercially available imiquimod cream (5% Beselna Cream; MOCHIDA PHARMACEUTICAL CO., LTD.) was applied onto the shaved waist skin of the mice once a day for 5 days, so as to produce imiquimod-induced psoriasis model. Twenty-four hours after the final application of the cream (Day 5), video observation was carried out for 1 hour. The shaved 20 mice were divided into 5 groups (4 mice per group), namely, a 30 mg/kg PA-8 oral (p.o.) administration group, a 30 mg/kg compound 2o oral (p.o.) administration group, a 30 mg/kg PA-9 oral (p.o.) administration group, a 30 mg/kg compound 3d (p.o.) administration group, and a solvent administration group (VEH: oral administration of 10% DMSO aqueous solution). Oral administration was carried out 30 minutes before initiation of the video observation.

- CREB phosphorylation by PACAP (1 nM) ([2]; PAC1/CHO cells, compound 10 pM to 10 nM for 30 minutes before PACAP, FIG. 4A, 4C, 4D, 5): suppressed CREB phosphorylation
- receptor selectivity (PAC1 versus VPAC1) ([2]; concluded from PAC1/CHO and VPAC1/CHO pCREB data): PAC1 receptor selective antagonist
SMILES: C=CCOc1ccc(C2CC(=O)Nc3nc(N)[nH]c(=O)c32)cc1OC (stereo not shown) [PA-8]
- scratching behavior induced by the AEW treatment (time spent in scratching) [1]: significantly suppressed
- itch behavior induced by application of imiquimod (time spent in scratching) [3]: significantly suppressed

Reference: patent US20220184081A1, “ANTIPRURITIC AGENT USING PAC1 RECEPTOR ANTAGONIST” (KAGOSHIMA UNIVERSITY, priority 2019, published 2022)
